Entries after “also recorded” stand apart in the source; their conditions may differ.
What was measured:
Type in all cases: cell-based, rat
[1] = test system: PC12 cells; test: Aβ1-42-induced neurotoxicity, cell viability by MTT assay
Description: (§1) PC12 cells (rat pheochromocytoma) (ATCC, Manassas, Va.) were cultured in RPMI 1640 without glutamine medium containing 10% of bovine serum and 5% of horse serum at 37° and 5% CO2. These cells respond reversibly to NGF by induction of the neuronal phenotype. PC12 cells were incubated for 24 hours in 96-well plates (5.10^4 cells per well) with increasing concentrations (1, 10 and 100 μM) of procaine, procainamide, lidocaine, tetracaine, SP015, SP016, SP017 or SP008. Aβ1-42 was incubated overnight at 4° C. and then added to the cells at 0.1, 1 or 10 μM final concentrations for a 24 hours time period.
(§2) The cellular toxicity of Aβ was assessed using the 3-(4,5-dimethylthiazol-2-yl)-2,5-diphenyl tetrazolium bromide (MTT) assay (Trevigen, Gaithersburg, Md.) as previously described (Lecanu et al. (2004) Steroids, 69: 1-16). Briefly, 10 μl of the MTT solution were added to the cells cultured in 100 μl of medium. After an incubation period of 4 hours in the same conditions as above, 100 μl of detergent were added and cells incubated overnight at 37° C. The blue coloration was quantified at 600 nm and 690 nm using the Victor spectrophotometer (EGG-Wallac, Gaithersburg, Md.). The effect of Aβ1-42 was expressed as (DO600-DO690). To compare the protective effect of the compounds tested, the decrease of MTT signal observed with Aβ1-42 was considered to be the 100% inhibition of the NADPH diaphorase activity and the effect of the compounds tested is shown as an increase or decrease of this percentage.

[2] = test system: PC12 cells; test: Aβ1-42-induced ATP depletion, ATPLite-M assay; settings: for protective effect on mitochondrial function / ATP content: compound at 1 μM
Description: as §1
ATP concentrations were measured using the ATPLite-M™ assay (Packard BioSciences Co.), as previously described (Lecanu et al., cited above). In brief, cells were cultured on black 96-well ViewPlate™ and the ATP concentrations measured on a TopCount NXT™ counter (Packard BioSciences Co.) according to the manufacturer recommendations. The effect of Aβ1-42 was expressed in arbitrary units. To compare the potential protective effect of the compounds tested on ATP recovery, the decrease of ATP concentration induced by Aβ1-42 was considered to be 100% reduction and the effects of the compounds tested are shown as changes of this percentage.

[3] = test system: PC12 cells; test: Glutamate-induced excitotoxicity, cell viability by MTT assay; settings: for prevention of glutamate-induced neurotoxicity: 24 h pre-treatment with compound 0.3-30 μM
Description: To study the role played by the NMDA receptor in the Aβ1-42-induced neurotoxicity, increasing concentrations of (+)-MK801 were added to the cell media immediately before Aβ1-42. Cell viability was assessed 4 hours later using the MTT assay. To assess the effect of procaine and SP008 on the glutamate-induced excitotoxicity, PC12 cells were pre-treated with procaine or SP008 at 0.3, 1, 3, 10 and 30 μM for 24 hours and then submitted to glutamate exposure for another 24 hour time period. Cell viability was subsequently assessed using the MTT assay. To assess the role of sodium channels in A8142-induced neurotoxicity, PC12 cells were incubated for 4 hours with the sodium-channel blocker TTX at 3, 30 or 300 μM followed by addition of Aβ1-42. Cell viability was assessed by MTT 24 hours later. The involvement of the oxidative stress in the toxicity of Aβ1-42 was assessed by incubating the PC12 in the presence of 10, 100 or 500 μM PBN for 24 hours. Aβ1-42 was then added to the incubation media. Cell viability was assessed by MTT 24 hours later.
as §2

In the case of `CCN1CCN(C(=O)c2ccc(OC)c(OC)c2OC)CC1` [SP008, 4-Ethyl-1-(2,3,4-trimethoxybenzoyl)-piperazine], the “neuroprotection against Aβ1-42 (PC12 viability), general statement” value (“neuroprotection … general statement” for short) [1] is reported as “significant neuroprotective properties; also recorded: strong neuroprotective properties”, the “protective effect against Aβ1-42-induced cytotoxicity (MTT)” value ([1]; 0.1 μM Aβ1-42, compound at 10 μM, p<0.01) is reported as “exerted a protective effect” and the “reduction of Aβ1-42-induced NADPH diaphorase inhibition (MTT)” value ([1]; 0.1 μM Aβ1-42, compound at 1 and 100 μM) is reported as “did not reduce”. The “neuroprotective effects against Aβ1-42 (MTT)” value ([1]; 1 μM Aβ1-42, compound at 1 (p<0.05), 10 (p<0.01) and 100 μM (p<0.001)) was “demonstrated neuroprotective effects”, the “neuroprotective properties against Aβ1-42-induced toxicity (MTT)” value ([1]; 10 μM Aβ1-42, compound at 10 (p<0.05) and 100 μM (p<0.01)) was “displayed neuroprotective properties” and the “potency against Aβ1-42 compared with procaine” value ([1]; two highest concentrations of Aβ1-42) was “more potent than procaine”. The “preservation of intracellular ATP against Aβ1-42, general statement” value (from here on “preservation of intracellular ATP”) [2] was “preserved Aβ1-42-induced ATP depletion”, the “preservation of Aβ1-42-depleted ATP stock” value ([2]; 0.1 μM Aβ1-42, compound at 10 μM) was “did not preserve” and the “prevention of ATP decrease” value ([2]; 0.1 μM Aβ1-42, compound at 1 and 100 μM, p<0.05) was “prevented the ATP decrease”. The ATP preservation ([2]; 1 μM Aβ1-42, compound 1-100 μM) was “dose-dependent ATP preservation”, the “restoration of ATP levels” value ([2]; 10 μM Aβ1-42, only 100 μM compound statistically significant (p<0.01)) was “dose-dependent restoration of ATP levels” and the “prevention of Aβ1-42-induced intracellular ATP stock depletion” value ([2]; even against 10 μM Aβ1-42) was “prevent the Aβ1-42-induced intracellular ATP stock depletion”. The “inhibition of the neurotoxic effect of glutamate, general statement” value [3] was “inhibited the neurotoxic effect”, the “lowest concentration reducing glutamate-induced neurotoxicity” value [3] was 0.3 µM and the “prevention of glutamate-induced neurotoxicity” value ([3]; glutamate 100 μM) was “biphasic”. For the same compound, the “neuroprotective effect compared with procaine at the same concentration” value ([3]; glutamate 100 μM, p<0.001) was “more important than the procaine effect” and the “concentration of maximum (peak) protective effect” value ([3]; glutamate 100 μM, p<0.001 compared to control) was 3 µM.
`CC(=O)OC1CC(O)C2(C)C(OC(C)=O)C3C(CC(C)C12)OC(=O)C3CN1CCN(C(=O)c2ccccc2)CC1` (stereo not drawn) [SP015, Acetic acid 7-acetoxy-3-(4-benzoyl-piperazin-1-yl-methyl)-5-hydroxy-4a,8-dimethyl-2-oxo-dodecahydro-azuleno[6,5-b]furan-4-yl ester] was tested, and the “neuroprotection … general statement” value [1] was “neuroprotection”, the “neuroprotective effect on PC12 viability after Aβ1-42 exposure” value ([1]; compound at 1 and 10 μM, only against 10 μM Aβ1-42) was “displayed a neuroprotective effect” and the “preservation of intracellular ATP” value [2] was “preservation of the ATP cellular stocks”. The “protective effect on mitochondrial function / ATP content” value ([2]; highest Aβ1-42 concentration examined) was “important protection”.
In the case of `CC(=O)OC1CC(OC(C)=O)C2(C)C(O)C3C(CC(C)C12)OC(=O)C3CN1CCN(C(=O)c2ccccc2)CC1` (stereo not drawn) [SP016, acetic acid 5-acetoxy-3-(4-benzoylpiperazin-1-yl-methyl)-4-hydroxy-4a,8-dimethyl-2-oxo-dodecahydro-azuleno[6,5-b]furan-7-yl ester], the “neuroprotection … general statement” value [1] is reported as “no effect was observed”, the “preservation of intracellular ATP” value [2] is reported as “preservation of the ATP cellular stocks” and the “protective effect on mitochondrial function / ATP content” value ([2]; low Aβ1-42 concentrations (0.1 μM)) is reported as “significant effect”.
In the case of `CC1=CCC23OC2(C)CCC2C(CN4CCN(C(=O)c5ccccc5)CC4)C(=O)OC2C13` (stereo not drawn) [SP017, 3-(4-benzoyl-piperazin-1-yl-methyl)-6,6a-epoxy-6,9-dimethyl-3a,4,5,6,6a,7,9a,9b-octahydro-3H-azuleno[4,5-b]furan-2-one], the “efficacy range, inhibition of Aβ1-42 toxicity (mitochondrial diaphorase activity)” value [1] is reported as 30-70%, the “neuroprotection … general statement” value [1] is reported as “highest protective effect; also recorded: neuroprotection” and the “preservation of intracellular ATP” value [2] is reported as “preservation of the ATP cellular stocks”.
`CCN(CC)CCOC(=O)c1ccc(N)cc1` [procaine, reference compound] was tested, and the “preservation of intracellular ATP” value [2] was “restore partially”, the “inhibition of the neurotoxic effect of glutamate, general statement” value [3] was “inhibited the neurotoxic effect” and the “prevention of glutamate-induced neurotoxicity” value ([3]; glutamate 100 μM) was “prevented the glutamate-induced neurotoxicity in a biphasic manner”.
